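Cultured in 96-well plates, cells were exposed to test compound for 48 hours across five concentrations. Definition used: TGI = concentration required for complete inhibition of growth.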 Where a SMILES comes first, the peptide text is derived from it. The star is where a group is joined. Boc = CC(C)(C)OC(=O)*; OBn = c1ccc(CO*)cc1
Assays:
Assay in all cases: NCI-60 cell line screen, 48 h
SF-295 CNS = system: SF-295 CNS
NCI-H460 lung = system: NCI-H460 lung
NCI/ADR-RES ovarian = system: NCI/ADR-RES ovarian
786-0 renal = system: 786-0 renal
HCT-15 colon = system: HCT-15 colon
ACHN renal = system: ACHN renal
CAKI-1 renal = system: CAKI-1 renal
DU-145 prostate = system: DU-145 prostate
SNB-75 CNS = system: SNB-75 CNS
T-47D breast = system: T-47D breast

Structure (SMILES) | TGI (SF-295 CNS) [µM] | TGI (NCI-H460 lung) [µM] | TGI (NCI/ADR-RES ovarian) [µM] | TGI (786-0 renal) [µM] | TGI (HCT-15 colon) [µM] | TGI (ACHN renal) [µM] | TGI (CAKI-1 renal) [µM] | TGI (DU-145 prostate) [µM] | TGI (SNB-75 CNS) [µM] | TGI (T-47D breast) [µM]
O=c1c2cc(I)ccc2nc(Sc2ncccc2[N+](=O)[O-])n1Cc1ccccc1 | > 100 | > 100 | > 100 | > 100 | > 100 | > 100 | > 100 | > 100 | > 100 | > 100
CC(NC(=O)C(NC(=O)OC(C)(C)C)C(C)C)C(=O)N1CCCC1C(=O)NCC(=O)NC(C(=O)NCC(=O)OCc1ccccc1)C(C)C (stereo not given) (Boc-VAPGVG-OBn; configuration not given here) | > 100 | > 100 | > 100 | > 100 | > 100 | > 100 | > 100 | > 100 | > 100 | > 100
Cc1[nH]c2ccccc2c1C=Nc1ccc(N=Cc2c(C)[nH]c3ccccc23)cc1 | > 100 | > 100 | > 100 | 35.7 | > 100 | > 100 | > 100 | > 100 | > 100 | > 100
COC(=O)c1cc(C#N)[nH]c1-c1ccc(C)s1 | > 100 | > 100 | > 100 | > 100 | > 100 | > 100 | > 100 | > 100 | > 100 | > 100
C=CCSC1=N/C(=C\c2ccccc2)C(=O)N1CC=C | > 100 | > 100 | > 100 | > 100 | > 100 | > 100 | > 100 | > 100 | 89.2 | 98.6
O=C1Cc2c([nH]c3ccc(Br)cc23)-c2ccccc2N1 | > 100 | > 100 | > 100 | > 100 | > 100 | > 100 | > 100 | > 100 | > 100 | > 100
CN(C)CCNC(=O)c1cccc2nc3c(nc12)-c1ccccc1C3=O | 39 | 18.9 | 39.3 | 30.2 | 41.4 | 32.1 | 66.4 | 70 | 31 | 37.4
CC[C@H](C)[C@H]1NC(=O)[C@@H](NC(=O)[C@@H](CC(C)C)N(C)CC2CCCN2C(=O)C(C)=O)[C@@H](C)OC(=O)[C@H](Cc2ccc(OC)cc2)N(C)C(=O)C2CCCN2C(=O)[C@H](CC(C)C)NC(=O)[C@@H](C)C(=O)[C@H](C(C)C)OC(=O)C[C@@H]1O (stereo not given in full) | 0.042 | 0.00812 | 0.231 | 0.0118 | 0.73 | 0.0389 | 0.338 | 0.0032 | 0.0108 | 0.012
Cc1cc(-c2nc3ccccc3s2)ccc1NC(=O)[C@H](C)N | 29.3 | 25.6 | 38.5 | 23.7 | 37.1 | 27.5 | 24 | 29 | 26.1 | 21.4
O=C1/C(=C/c2ccccc2[N+](=O)[O-])N=C(c2ccccc2)N1C1Nc2cc3c(cc2S1)NC(N1C(=O)/C(=C/c2ccccc2[N+](=O)[O-])N=C1c1ccccc1)S3 (stereo not given) | > 100 | > 100 | 97.4 | 79.6 | > 100 | > 100 | > 100 | > 100 | > 100 | > 100
Oc1[nH]c2ccccc2c1N=Nc1nc(-c2ccc(Cl)c(Cl)c2)cs1 | > 100 | > 100 | > 100 | > 100 | > 100 | > 100 | > 100 | > 100 | > 100 | > 100
COc1cc(CC2c3cc(OC)c(OC)cc3CCN2C)c(Oc2cc3c(cc2OC)-c2c(O)c(OC)cc4c2C(C3)N(C)CC4)cc1OC (stereo not given) | 35.4 | 44.8 | 43.9 | 84.4 | 33.1 | 49.8 | 68.4 | > 100 | 31.3 | 55
O=C(OCc1ccccc1)C1(N2CN(C3(C(=O)OCc4ccccc4)CCCC3)CN(C3(C(=O)OCc4ccccc4)CCCC3)C2)CCCC1 | > 10 | > 10 | > 10 | > 10 | > 10 | > 10 | > 10 | > 10 | > 10 | > 10
CCOC(=O)/C=C(/C(=O)OCC)n1cc(C)c(=O)n(Cc2cn(COCCOC(C)=O)nn2)c1=O | > 100 | > 63.1 | 67.9 | > 54.8 | > 61.9 | 21.6 | 23.6 | > 90.2 | > 100 | > 64.3
O=C1c2c(nc3ccccc3c2-c2ccccc2)CN1Nc1ccccn1 | > 100 | > 83.2 | > 100 | > 93.1 | > 100 | > 100 | > 86.9 | > 100 | > 92.8 | > 100

— PubChem BioAssay (NCI)
